Laboratory results as given in PMC6409085, “Three odorant-binding proteins are involved in the behavioral response of Sogatella furcifera to rice plant volatiles” (PeerJ, 2019).
Where “and” joins values, the source holds several entries; their conditions need not be identical. Identical values can stand only once.

Experiments:
SfurOBP2 = SfurOBP2 (Sogatella furcifera, UniProt V5T759); experiment: biochemical; format: binding
How it was run: (§1)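 Protein 2.0 µM + 1-NPN 2.0 µM, 50 mM Tris-HCl pH 7.4; competitor odorants 2, 4 … 20 µM final; read 2 min post-addition, ex 337/em 390–490 nm; n=3. K1-NPN from 1-NPN titration/Scatchard; Ki from IC50 corrected for free 1-NPN.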

SfurOBP1 = SfurOBP1 (Sogatella furcifera, UniProt V5T8N5); experiment: biochemical; format: binding; settings: for Fluorescence competitive binding assay, fluorescence intensity: OBP1, three replicate columns
How it was run: as §1

SfurOBP3 = SfurOBP3 (Sogatella furcifera, UniProt V5T818); experiment: biochemical; format: binding; settings: for Fluorescence competitive binding assay, fluorescence intensity: OBP3, three replicate columns
How it was run: as §1

SfurOBP11 = SfurOBP11 (Sogatella furcifera, UniProt V5T6E3); experiment: biochemical; format: binding
How it was run: as §1

S. furcifera adults = experiment: Y-tube olfactometer behavioral trials; format: in vivo, Sogatella furcifera; settings: odorant 50 µL/L vs hexane; adults
How it was run: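 Single S. furcifera adults (2 days post-emergence, starved 0.5 h) chose between odorant (100 µL of 50 µL/L on filter paper) and hexane control in a glass Y-tube, charcoal-filtered humidified air 300 mL/min per arm, 25 ± 1 °C, 50% RH. Choice scored if insect passed half an arm and stayed >1 min within 10 min; 45 insects per compound, chi-squared test.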

Sequence of SfurOBP3 (V5T818 entry or part of it): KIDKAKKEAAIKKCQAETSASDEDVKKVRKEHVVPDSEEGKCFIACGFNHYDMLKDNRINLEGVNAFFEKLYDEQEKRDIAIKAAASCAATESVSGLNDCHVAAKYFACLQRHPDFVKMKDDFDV
Sequence of SfurOBP11 (V5T6E3 entry or part of it): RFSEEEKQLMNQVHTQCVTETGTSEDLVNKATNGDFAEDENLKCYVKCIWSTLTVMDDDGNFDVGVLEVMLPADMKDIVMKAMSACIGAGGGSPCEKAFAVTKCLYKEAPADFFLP
Sequence of SfurOBP2 (V5T759 entry or part of it): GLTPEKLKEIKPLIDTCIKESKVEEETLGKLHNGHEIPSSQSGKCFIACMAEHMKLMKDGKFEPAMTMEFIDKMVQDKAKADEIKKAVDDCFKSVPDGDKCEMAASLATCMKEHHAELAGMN
Sequence of SfurOBP1 (V5T8N5 entry or part of it): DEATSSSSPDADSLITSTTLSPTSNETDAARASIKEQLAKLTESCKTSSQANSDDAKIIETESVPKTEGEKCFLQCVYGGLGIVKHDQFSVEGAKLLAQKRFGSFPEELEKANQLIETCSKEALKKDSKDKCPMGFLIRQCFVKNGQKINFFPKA

- IC50 (SfurOBP2; SfurOBP2, protein and 1-NPN both 2.0 µM, competitor 2-20 µM, read-out: IC50): > 20 µM
- Fluorescence competitive binding assay, OBP2 (raw fluorescence reading) (SfurOBP2; ligand concentration 2 (unit not given), replicate column 1 of 3): 22779
- Fluorescence competitive binding assay, OBP2 (raw fluorescence reading) (SfurOBP2; ligand concentration 2 (unit not given), replicate column 2 of 3): 20086
- Fluorescence competitive binding assay, OBP2 (raw fluorescence reading) (SfurOBP2; ligand concentration 2 (unit not given), replicate column 3 of 3): 21018
- Fluorescence competitive binding assay, OBP2 (raw fluorescence reading) (SfurOBP2; ligand concentration 4 (unit not given), replicate column 1 of 3): 21686
- Fluorescence competitive binding assay, OBP2 (raw fluorescence reading) (SfurOBP2; ligand concentration 4 (unit not given), replicate column 2 of 3): 22088
- Fluorescence competitive binding assay, OBP2 (raw fluorescence reading) (SfurOBP2; ligand concentration 4 (unit not given), replicate column 3 of 3): 20918
- Fluorescence competitive binding assay, OBP2 (raw fluorescence reading) (SfurOBP2; ligand concentration 6 (unit not given), replicate column 1 of 3): 24120
- Fluorescence competitive binding assay, OBP2 (raw fluorescence reading) (SfurOBP2; ligand concentration 6 (unit not given), replicate column 2 of 3): 23625
- Fluorescence competitive binding assay, OBP2 (raw fluorescence reading) (SfurOBP2; ligand concentration 6 (unit not given), replicate column 3 of 3): 22791
- Fluorescence competitive binding assay, OBP2 (raw fluorescence reading) (SfurOBP2; ligand concentration 8 (unit not given), replicate column 1 of 3): 22496
- Fluorescence competitive binding assay, OBP2 (raw fluorescence reading) (SfurOBP2; ligand concentration 8 (unit not given), replicate column 2 of 3): 24832
- Fluorescence competitive binding assay, OBP2 (raw fluorescence reading) (SfurOBP2; ligand concentration 8 (unit not given), replicate column 3 of 3): 23266
- Fluorescence competitive binding assay, OBP2 (raw fluorescence reading) (SfurOBP2; ligand concentration 10 (unit not given), replicate column 1 of 3): 22518
- Fluorescence competitive binding assay, OBP2 (raw fluorescence reading) (SfurOBP2; ligand concentration 10 (unit not given), replicate column 2 of 3): 23515
- Fluorescence competitive binding assay, OBP2 (raw fluorescence reading) (SfurOBP2; ligand concentration 10 (unit not given), replicate column 3 of 3): 22157
- Fluorescence competitive binding assay, OBP2 (raw fluorescence reading) (SfurOBP2; ligand concentration 12 (unit not given), replicate column 1 of 3): 23732
- Fluorescence competitive binding assay, OBP2 (raw fluorescence reading) (SfurOBP2; ligand concentration 12 (unit not given), replicate column 2 of 3): 24191
- Fluorescence competitive binding assay, OBP2 (raw fluorescence reading) (SfurOBP2; ligand concentration 12 (unit not given), replicate column 3 of 3): 22198
- Fluorescence competitive binding assay, OBP2 (raw fluorescence reading) (SfurOBP2; ligand concentration 14 (unit not given), replicate column 1 of 3): 22713
- Fluorescence competitive binding assay, OBP2 (raw fluorescence reading) (SfurOBP2; ligand concentration 14 (unit not given), replicate column 2 of 3): 20356
- Fluorescence competitive binding assay, OBP2 (raw fluorescence reading) (SfurOBP2; ligand concentration 14 (unit not given), replicate column 3 of 3): 21973
- Fluorescence competitive binding assay, OBP2 (raw fluorescence reading) (SfurOBP2; ligand concentration 16 (unit not given), replicate column 1 of 3): 21871
- Fluorescence competitive binding assay, OBP2 (raw fluorescence reading) (SfurOBP2; ligand concentration 16 (unit not given), replicate column 2 of 3): 23043
- Fluorescence competitive binding assay, OBP2 (raw fluorescence reading) (SfurOBP2; ligand concentration 16 (unit not given), replicate column 3 of 3): 23038
- Fluorescence competitive binding assay, OBP2 (raw fluorescence reading) (SfurOBP2; ligand concentration 18 (unit not given), replicate column 1 of 3): 25864
- Fluorescence competitive binding assay, OBP2 (raw fluorescence reading) (SfurOBP2; ligand concentration 18 (unit not given), replicate column 2 of 3): 26767
- Fluorescence competitive binding assay, OBP2 (raw fluorescence reading) (SfurOBP2; ligand concentration 18 (unit not given), replicate column 3 of 3): 25338
- Fluorescence competitive binding assay, OBP2 (raw fluorescence reading) (SfurOBP2; ligand concentration 20 (unit not given), replicate column 1 of 3): 26712
- Fluorescence competitive binding assay, OBP2 (raw fluorescence reading) (SfurOBP2; ligand concentration 20 (unit not given), replicate column 2 of 3): 23676
- Fluorescence competitive binding assay, OBP2 (raw fluorescence reading) (SfurOBP2; ligand concentration 20 (unit not given), replicate column 3 of 3): 24323
- Fluorescence competitive binding assay, fluorescence intensity (SfurOBP1; ligand concentration 2 (μM)): 5361 and 5140 and 5582
- Fluorescence competitive binding assay, fluorescence intensity (SfurOBP1; ligand concentration 4 (μM)): 6690 and 6608 and 6742
- Fluorescence competitive binding assay, fluorescence intensity (SfurOBP1; ligand concentration 6 (μM)): 8870 and 9897 and 7869
- Fluorescence competitive binding assay, fluorescence intensity (SfurOBP1; ligand concentration 8 (μM)): 7482 and 6593 and 11079
- Fluorescence competitive binding assay, fluorescence intensity (SfurOBP1; ligand concentration 10 (μM)): 7327 and 7941 and 8862
- Fluorescence competitive binding assay, fluorescence intensity (SfurOBP1; ligand concentration 12 (μM)): 8260 and 9027 and 8555
- Fluorescence competitive binding assay, fluorescence intensity (SfurOBP1; ligand concentration 14 (μM)): 9439 and 7708 and 9780
- Fluorescence competitive binding assay, fluorescence intensity (SfurOBP1; ligand concentration 16 (μM)): 8450 and 9204 and 7552
- Fluorescence competitive binding assay, fluorescence intensity (SfurOBP1; ligand concentration 18 (μM)): 9810 and 13450 and 9951
- Fluorescence competitive binding assay, fluorescence intensity (SfurOBP1; ligand concentration 20 (μM)): 10406 and 10007 and 8824
- IC50 (SfurOBP1; SfurOBP1, protein and 1-NPN both 2.0 µM, competitor 2-20 µM, read-out: IC50): > 20 µM
- Fluorescence competitive binding assay, fluorescence intensity (SfurOBP3; ligand concentration 2): 81706 and 89895 and 90926
- Fluorescence competitive binding assay, fluorescence intensity (SfurOBP3; ligand concentration 4): 92466 and 96932 and 93745
- Fluorescence competitive binding assay, fluorescence intensity (SfurOBP3; ligand concentration 6): 84153 and 91141 and 92184
- Fluorescence competitive binding assay, fluorescence intensity (SfurOBP3; ligand concentration 8): 88550 and 83959 and 85903
- Fluorescence competitive binding assay, fluorescence intensity (SfurOBP3; ligand concentration 10): 84955 and 81246 and 84347
- Fluorescence competitive binding assay, fluorescence intensity (SfurOBP3; ligand concentration 12): 79099 and 81968 and 85076
- Fluorescence competitive binding assay, fluorescence intensity (SfurOBP3; ligand concentration 14): 78930 and 78937 and 80614
- Fluorescence competitive binding assay, fluorescence intensity (SfurOBP3; ligand concentration 16): 67688 and 71739 and 72376
- Fluorescence competitive binding assay, fluorescence intensity (SfurOBP3; ligand concentration 18): 93819 and 87996 and 91999
- Fluorescence competitive binding assay, fluorescence intensity (SfurOBP3; ligand concentration 20): 87679 and 80588 and 71651
- IC50 (SfurOBP3; SfurOBP3, protein and 1-NPN both 2.0 µM, competitor 2-20 µM, read-out: IC50): > 20 µM
- IC50 (SfurOBP11; SfurOBP11, protein and 1-NPN both 2.0 µM, competitor 2-20 µM, read-out: IC50): > 20 µM
- Fluorescence intensity, fluorescence competitive binding assay, OBP11 (SfurOBP11; ligand concentration 2, replicate 1): 39005
- Fluorescence intensity, fluorescence competitive binding assay, OBP11 (SfurOBP11; ligand concentration 2, replicate 2): 36085
- Fluorescence intensity, fluorescence competitive binding assay, OBP11 (SfurOBP11; ligand concentration 2, replicate 3): 36144
- Fluorescence intensity, fluorescence competitive binding assay, OBP11 (SfurOBP11; ligand concentration 4, replicate 1): 38725
- Fluorescence intensity, fluorescence competitive binding assay, OBP11 (SfurOBP11; ligand concentration 4, replicate 2): 39209
- Fluorescence intensity, fluorescence competitive binding assay, OBP11 (SfurOBP11; ligand concentration 4, replicate 3): 36494
- Fluorescence intensity, fluorescence competitive binding assay, OBP11 (SfurOBP11; ligand concentration 6, replicate 1): 38941
- Fluorescence intensity, fluorescence competitive binding assay, OBP11 (SfurOBP11; ligand concentration 6, replicate 2): 37869
- Fluorescence intensity, fluorescence competitive binding assay, OBP11 (SfurOBP11; ligand concentration 6, replicate 3): 35504
- Fluorescence intensity, fluorescence competitive binding assay, OBP11 (SfurOBP11; ligand concentration 8, replicate 1): 38326
- Fluorescence intensity, fluorescence competitive binding assay, OBP11 (SfurOBP11; ligand concentration 8, replicate 2): 38320
- Fluorescence intensity, fluorescence competitive binding assay, OBP11 (SfurOBP11; ligand concentration 8, replicate 3): 34260
- Fluorescence intensity, fluorescence competitive binding assay, OBP11 (SfurOBP11; ligand concentration 10, replicate 1): 39470
- Fluorescence intensity, fluorescence competitive binding assay, OBP11 (SfurOBP11; ligand concentration 10, replicate 2): 35190
- Fluorescence intensity, fluorescence competitive binding assay, OBP11 (SfurOBP11; ligand concentration 10, replicate 3): 34723
- Fluorescence intensity, fluorescence competitive binding assay, OBP11 (SfurOBP11; ligand concentration 12, replicate 1): 35740
- Fluorescence intensity, fluorescence competitive binding assay, OBP11 (SfurOBP11; ligand concentration 12, replicate 2): 35339
- Fluorescence intensity, fluorescence competitive binding assay, OBP11 (SfurOBP11; ligand concentration 12, replicate 3): 34546
- Fluorescence intensity, fluorescence competitive binding assay, OBP11 (SfurOBP11; ligand concentration 14, replicate 1): 33030
- Fluorescence intensity, fluorescence competitive binding assay, OBP11 (SfurOBP11; ligand concentration 14, replicate 2): 32494
- Fluorescence intensity, fluorescence competitive binding assay, OBP11 (SfurOBP11; ligand concentration 14, replicate 3): 31487
- Fluorescence intensity, fluorescence competitive binding assay, OBP11 (SfurOBP11; ligand concentration 16, replicate 1): 29383
- Fluorescence intensity, fluorescence competitive binding assay, OBP11 (SfurOBP11; ligand concentration 16, replicate 2): 30154
- Fluorescence intensity, fluorescence competitive binding assay, OBP11 (SfurOBP11; ligand concentration 16, replicate 3): 29504
- Fluorescence intensity, fluorescence competitive binding assay, OBP11 (SfurOBP11; ligand concentration 18, replicate 1): 32894
- Fluorescence intensity, fluorescence competitive binding assay, OBP11 (SfurOBP11; ligand concentration 18, replicate 2): 34140
- Fluorescence intensity, fluorescence competitive binding assay, OBP11 (SfurOBP11; ligand concentration 18, replicate 3): 29208
- Fluorescence intensity, fluorescence competitive binding assay, OBP11 (SfurOBP11; ligand concentration 20, replicate 1): 31537
- Fluorescence intensity, fluorescence competitive binding assay, OBP11 (SfurOBP11; ligand concentration 20, replicate 2): 29929
- Fluorescence intensity, fluorescence competitive binding assay, OBP11 (SfurOBP11; ligand concentration 20, replicate 3): 28655
Compound: CCCCCCCCCCCCCCCCCCC [n-nonadecane]
- number of insects choosing hexane arm (S. furcifera adults): 13
- number of insects choosing volatilies arm (S. furcifera adults): 15
- number of insects failed (no choice) (S. furcifera adults): 12
